Data reported in ChEMBL document CHEMBL1201862, “PubChem BioAssay data set” (2004).
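Protocol summary: plate cells (96-well), add compound at 5 concentrations, incubate 48 h, interpolate endpoints linearly. Abbreviation: GI50, concentration required for 50% inhibition of growth.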 Activity calls are given as the source filed them. No stated cut-off is given here; in the data, active = GI50 up to about 1.1 µM and inactive = higher.

Assays:
Assay in all cases: DTP human tumour cell line panel, 48 h
HCT-15 = test system: HCT-15
EKVX = test system: EKVX
NCI-H460 = test system: NCI-H460
HL-60 = test system: HL-60
NCI/ADR-RES = test system: NCI/ADR-RES
HT-29 = test system: HT-29
SF-268 = test system: SF-268
Hs-578T = test system: Hs-578T
DU-145 = test system: DU-145
A498 = test system: A498
PC-3 = test system: PC-3
OVCAR-3 = test system: OVCAR-3
A549 = test system: A549
SF-539 = test system: SF-539
SK-MEL-5 = test system: SK-MEL-5
CCRF-CEM = test system: CCRF-CEM
MDA-MB-435 = test system: MDA-MB-435
SK-MEL-28 = test system: SK-MEL-28
U-251 = test system: U-251

SMILES	GI50 (HCT-15)	GI50 (EKVX)	GI50 (NCI-H460)	GI50 (HL-60)	GI50 (NCI/ADR-RES)	GI50 (HT-29)	GI50 (SF-268)	GI50 (Hs-578T)	GI50 (DU-145)	GI50 (A498)	GI50 (PC-3)	GI50 (OVCAR-3)	GI50 (A549)	GI50 (SF-539)	GI50 (SK-MEL-5)	GI50 (CCRF-CEM)	GI50 (MDA-MB-435)	GI50 (SK-MEL-28)	GI50 (U-251)
Cc1c(-c2ccccc2)c(C#N)c2nnn(C3CCCCC3)c(=O)n12	> 100 µM	37 µM (inactive)	> 100 µM (inactive)	> 100 µM (inactive)	> 100 µM (inactive)	11.6 µM (inactive)	> 100 µM (inactive)	97.9 µM (inactive)	> 100 µM (inactive)	65.8 µM (inactive)	20.2 µM (inactive)	> 100 µM (inactive)	83.4 µM (inactive)	47.4 µM (inactive)	72.4 µM (inactive)	> 100 µM (inactive)	> 100 µM (inactive)	> 100 µM (inactive)	53.2 µM (inactive)
O=C(O)C1CCCN1Cc1c[nH]c2ccccc12 (stereo not drawn)	> 100 µM	> 100 µM (inactive)	> 100 µM (inactive)	> 100 µM (inactive)	> 100 µM (inactive)	> 100 µM (inactive)	> 100 µM (inactive)	> 100 µM (inactive)	> 100 µM (inactive)	> 100 µM (inactive)	> 100 µM (inactive)	> 100 µM (inactive)	> 100 µM (inactive)	> 100 µM (inactive)	> 100 µM (inactive)	> 100 µM (inactive)	> 100 µM (inactive)	> 100 µM (inactive)	> 100 µM (inactive)
O=C1c2cscc2C(=O)C1(O)O	45.8 µM	36.1 µM (inactive)	> 100 µM (inactive)	26.1 µM (inactive)	> 100 µM (inactive)	70 µM (inactive)	> 100 µM (inactive)	> 100 µM (inactive)	> 100 µM (inactive)	> 100 µM (inactive)	78 µM (inactive)	25.2 µM (inactive)	> 100 µM (inactive)	> 100 µM (inactive)	> 100 µM (inactive)	23.7 µM (inactive)	32.6 µM (inactive)	> 100 µM (inactive)	> 100 µM (inactive)
Cc1nc2c(N3CCCC3)nc(N3CCNCC3)nc2nc1NCc1ccccc1	2.09 µM	8.11 µM (inactive)	3.56 µM (inactive)	3.61 µM (inactive)	13 µM (inactive)	2.41 µM (inactive)	3.85 µM (inactive)	6.17 µM (inactive)	6.52 µM (inactive)	4.79 µM (inactive)	5.05 µM (inactive)	2.43 µM (inactive)	3.88 µM (inactive)	2.65 µM (inactive)	1.65 µM (inactive)	2.4 µM (inactive)	2.24 µM (inactive)	1.95 µM (inactive)	3.2 µM (inactive)
Cc1cccc2c(=O)c3cccc([C@@H](C)C(=O)O)c3oc12	> 100 µM	> 100 µM (inactive)	> 100 µM (inactive)	> 100 µM (inactive)	> 100 µM (inactive)	> 100 µM (inactive)	> 100 µM (inactive)	> 100 µM (inactive)	> 100 µM (inactive)	> 100 µM (inactive)	> 100 µM (inactive)	> 100 µM (inactive)	> 100 µM (inactive)	> 100 µM (inactive)	> 100 µM (inactive)	> 100 µM (inactive)	> 100 µM (inactive)	> 100 µM (inactive)	> 100 µM (inactive)
NCC(=O)Nc1ccc(Cl)cc1C(=O)c1ccc[nH]1	38.5 µM	> 100 µM (inactive)	10.4 µM (inactive)	15.1 µM (inactive)	49 µM (inactive)	25.5 µM (inactive)	49 µM (inactive)	> 67.5 µM (inactive)	> 100 µM (inactive)	> 63.1 µM (inactive)	25.9 µM (inactive)	40.9 µM (inactive)	63.1 µM (inactive)	> 32.8 µM (inactive)	49 µM (inactive)	3.42 µM (inactive)	45.2 µM (inactive)	> 93.5 µM (inactive)	15.2 µM (inactive)
Cc1sc2[nH]c(=O)oc(=O)c2c1C	> 89.9 µM	> 100 µM (inactive)	> 100 µM (inactive)	37 µM (inactive)	35.1 µM (inactive)	> 71.9 µM (inactive)	53.8 µM (inactive)	28.6 µM (inactive)	> 100 µM (inactive)	> 100 µM (inactive)	> 100 µM (inactive)	55 µM (inactive)	> 83.8 µM (inactive)	58.3 µM (inactive)	48.3 µM (inactive)	39.6 µM (inactive)	39.9 µM (inactive)	> 71.8 µM (inactive)	51.4 µM (inactive)
